Consider two molecules from patent US20220326218A1, “COMPOSITION AND METHOD FOR INHIBITING BORC COMPLEX TO TREAT CANCERS WITH NF1 DEFICIENCY AND DYSREGULATED RAS SIGNALING” (THE TRUSTEES OF DARTMOUTH COLLEGE, priority 2019, published 2022).

Counter-ions that a name gives are not always drawn.

What all share (format): cell-based, human
In one assay the test system is sequestosome-1 (p62). The experiment in a line: Immunofluorescence staining for p62. The conditions noted are these: U87-MG, 24 h; 2 μM Y102, 50 μM HCQ; HCQ and Y102 compared with each other. Here is the method: (§1) U87-MG cells were plated at a concentration of 50,000 cells/well onto precoated poly-D-lysine (PDL) coverslips (Neuvitro) in 24-well plates (Falcon) and allowed to adhere overnight. Medium was removed and replaced with treatment-laced media normalized to DMSO, and cells were treated for the indicated timepoints. At the time of collection, cells were washed with PBS and fixed with 4% paraformaldehyde without methanol (EMS) or 100% methanol (Fischer). Coverslips were washed with Tween20-containing PBS (PBST; Fischer). Following permeabilization with 0.5% Triton X-100 in PBS (Fischer), coverslips were blocked for 1 h at room temperature in IF Buffer (0.05% azide, 0.2% Triton X-100, 2% Normal Goat Serum or, for 8-OHG, Normal Donkey Serum). The following primary antibodies were used for 1 hour at room temperature unless specified: AlexaFluor 488 pre-conjugated anti-γ-H2AX (N1-431) mouse monoclonal (30 minutes; BD Biosciences), anti-cleaved caspase 3 (Asp175) rabbit polyclonal (Cell Signaling), anti-SQSTM1/p62 (D-3) mouse monoclonal (Santa Cruz), anti-8-Hydroxyguanosine goat polyclonal (1:200; Millipore), anti-LAMP1 (D4O1S) mouse monoclonal (O/N at 4° C.; Cell Signaling), anti-BNIP3L/Nix (D4R4B) rabbit monoclonal (O/N at 4° C.; Cell Signaling), anti-FLAG (M2) mouse monoclonal (2 hours at 37° C.; Sigma-Aldrich). […]

Another assay has as its system p62. The assay can be described thus: Western immunoblotting of autophagy marker p62. The note with it: U87-MG, 12 h treatment +/- 12 h HCQ. Here is the method: (§2) U87-MG cells were plated at 500,000 cells/well in 6-well plates and allowed to adhere overnight (Falcon). Medium was removed and replaced with fresh medium containing drugs or compounds for the indicated timepoints. Cells were collected after treatment by washing with PBS, harvested with trypsin plus agitation to detach cells, pelleted in a centrifuge and resuspended in PBS to wash. Cells were transferred to 1.5 mL microcentrifuge tubes, pelleted, and resuspended in RIPA lysis buffer (50 mM Tris pH 8.0, 150 mM NaCl, 1% nonidet P40, 0.5% sodium deoxycholate, and 0.05% SDS) containing 1 mM NaVO4, 1 mM NaF, 1 mM phenylmethylsulfonyl fluoride, 0.1 μg/mL antipain, 1 μM aprotinin, 100 μM benzamidine HCl, 0.1 μg/mL leupeptin, 0.1 μg/mL pepstatin, and 0.1 μg/mL soybean trypsin inhibitor. Protein was quantified using a BCA assay kit (Pierce). 50 μg of protein was prepared in 1× Laemmli sample buffer (50 mM Tris pH 6.8, 0.02% w/v bromophenol blue, 2% w/v SDS, 10% v/v glycerol, 1% v/v beta-mercaptoethanol, 12.5 mM EDTA) and separated by SDS-PAGE on a 4-15% polyacrylamide gradient gel (Bio-Rad). […]

Another assay relates to LC3-II. The experiment in a line: Western immunoblotting of autophagy marker LC3-I/II. The note with it: U87-MG, 12 h treatment +/- 12 h HCQ co-treatment, total 24 h. The protocol: as §2
(In western blotting, separated proteins are transferred to a membrane and probed.)

The subject of a further assay is mitochondria. The assay can be described thus: MitoTracker Red CMXRos staining of the mitochondrial network. The conditions noted are these: U87-MG, 24 h; 2 μM Y102, 50 μM HCQ. The protocol:
For MitoTracker Red CMXRos staining, 30 minutes prior to collection medium was removed and replaced with medium containing MitoTracker Red CMXRos at a final concentration of 100 nM (Molecular Probes). Following staining, cells were washed with PBS and fixed with 4% paraformaldehyde without methanol. Cells were washed with PBST, then permeabilized with 0.5% Triton X-100 in PBS. When co-staining with another marker, the staining procedure continued with the blocking step; otherwise, cells were stained with 0.33 μg/mL DAPI in PBS and mounted onto slides in ProLong Gold (Life Technologies).

The subject of a further assay is BNIP3L/Nix. The assay can be described thus: Immunofluorescence staining for mitophagy receptor BNIP3L/Nix. The note with it: U87-MG, 24 h; 2 μM Y102, 100 μM CoCl2; CoCl2 and Y102 compared with each other. The protocol:
as §1

Regarding `CCN(CCO)CCCC(C)Nc1ccnc2cc(Cl)ccc12` (centres unmarked) [HCQ, Hydroxychloroquine Sulfate, reference compound], the “p62 expression compared to DMSO (immunofluorescence)” value in the assay with sequestosome-1 (p62) is “similar”. For the same molecule, the “p62 expression (western immunoblotting)” value with p62 was “increased”. The “LC3-II accumulation (western immunoblotting)” value with LC3-II is reported as “resulted in LC3-II accumulation”. The “mitochondrial phenotype (perinuclear clustering)” value in the assay with mitochondria was “not observed”.
Regarding `[Cl-].[Cl-].[Co+2]` [CoCl2, Cobalt (II) Chloride, reference compound], the “expression/localization of BNIP3L/Nix on the mitochondria compared to DMSO control” value in the assay on BNIP3L/Nix is given as “similar”.
